Our source for the IC50 values is patent US9920032B2, “Heterocyclic compounds useful as pim kinase inhibitors” (Incyte Corporation, priority 2015, dated 2018).

Each structure is given as a SMILES string.

Type in all cases: biochemical
The target in one experiment is Pim-1 (Homo sapiens (Human), UniProt P11309). Kind of experiment: Pim-1 kinase assay. To be noted: 1 mM ATP; read-out: PIM1 IC50. Summed up: (§1)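 Enzyme at 2.5 pM (Pim-1) or 1.25 pM (Pim-3) reacted 1 h at 25° C with 1 mM ATP and 0.05 μM biotinylated BAD peptide, pH 7.5. Phospho-Ser112 BAD detected by antibody/Protein-A acceptor and streptavidin donor bead proximity signal after EDTA quench and 1 h dark incubation.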
Chain of Pim-1 (P11309 whole entry): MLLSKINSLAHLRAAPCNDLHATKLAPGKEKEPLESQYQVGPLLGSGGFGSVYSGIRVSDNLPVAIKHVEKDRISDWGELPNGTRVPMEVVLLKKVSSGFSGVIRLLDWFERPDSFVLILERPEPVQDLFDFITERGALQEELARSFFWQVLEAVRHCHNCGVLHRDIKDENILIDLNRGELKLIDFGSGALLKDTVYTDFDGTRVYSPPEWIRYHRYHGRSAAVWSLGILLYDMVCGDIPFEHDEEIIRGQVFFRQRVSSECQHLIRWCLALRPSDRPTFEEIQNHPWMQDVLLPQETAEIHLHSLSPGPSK

A further experiment deals with Pim-2 (Homo sapiens (Human), UniProt Q9P1W9). In words: Pim-2 kinase assay. To be noted: 1 mM ATP; read-out: PIM2 IC50. The essentials: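 TR-FRET assay with 1 nM enzyme, 0.05 μM fluorescein-CREBtide and 1 mM ATP in Tris pH 7.5 buffer with MgCl2, DTT, BSA and Tween-20, run 2 h at 25° C. Stopped with EDTA and Tb-labelled anti-CREB pSer133 antibody, then read after 30 min at room temperature.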
Chain of Pim-2 (Q9P1W9 whole entry): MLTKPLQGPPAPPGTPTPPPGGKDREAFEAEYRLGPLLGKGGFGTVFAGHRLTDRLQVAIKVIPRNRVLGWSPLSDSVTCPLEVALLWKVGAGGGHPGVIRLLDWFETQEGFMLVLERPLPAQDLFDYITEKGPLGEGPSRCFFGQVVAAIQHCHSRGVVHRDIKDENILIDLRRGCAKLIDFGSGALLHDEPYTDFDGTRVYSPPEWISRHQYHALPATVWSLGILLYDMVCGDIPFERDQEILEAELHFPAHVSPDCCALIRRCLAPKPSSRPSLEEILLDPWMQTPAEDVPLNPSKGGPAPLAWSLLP

A further experiment has as its target Pim-3 (Homo sapiens (Human), UniProt Q86V86). In words: Pim-3 kinase assay. To be noted: 1 mM ATP; read-out: PIM3 IC50. The essentials: as §1

Usually IC50 stands for the concentration that inhibits the measured activity by half. For `C[C@@H]1C[C@H](N)C[C@H](c2ccncc2NC(=O)c2ccc(F)c3cc(N4C[C@@H](O)C[C@H]4C)cnc23)C1` [Example 164, N-(4-((1R,3S,5S)-3-Amino-5-methylcyclohexyl]pyridin-3-yl}-5-fluoro-3-[(2R,4S)-4-hydroxy-2-methylpyrrolidin-1-yl]quinoline-8-carboxamide], the IC50 on Pim-1 was not above 10 nM; at Pim-2 it was not above 100 nM; at Pim-3, not above 10 nM.
`C[C@@H]1C[C@H](N)C[C@H](c2ccncc2NC(=O)c2ccc(F)c3cc(N4CCCOCC4)cnc23)C1` [Example 102, N-(4-((1R,3S,5S)-3-Amino-5-methylcyclohexyl)pyridin-3-yl)-5-fluoro-3-(1,4-oxazepan-4-yl)quinoline-8-carboxamide]: the IC50 was not above 10 nM at Pim-1, not above 100 nM on Pim-2 and not above 10 nM on Pim-3.
`C[C@@H]1C[C@H](N)C[C@H](c2ccncc2NC(=O)c2ccc(F)c3cc(N4CCN(C)CC4)cnc23)C1` [Example 30, N-{4-[(1R,3S,5S)-3-Amino-5-methylcyclohexyl]pyridin-3-yl}-5-fluoro-3-(4-methylpiperazin-1-yl)quinoline-8-carboxamide]: the half-maximal inhibitory concentration (IC50) at Pim-1 was not above 10 nM; on Pim-2, 100 to 1000 nM; on Pim-3, not above 10 nM.
In the case of `CCOC1CN(c2cnc3c(C(=O)Nc4cnccc4[C@@H]4C[C@H](C)C[C@H](N)C4)ccc(F)c3c2)C1` [Example 122, N-(4-((1R,3S,5S)-3-Amino-5-methylcyclohexyl)pyridin-3-yl)-3-(3-ethoxyazetidin-1-yl)-5-fluoroquinoline-8-carboxamide], the figures for the IC50 on Pim-1, on Pim-2 and on Pim-3 were not above 10 nM, not above 100 nM and not above 10 nM, respectively.
In the case of `Cc1n[nH]cc1-c1cnc2c(C(=O)Nc3cnccc3[C@@H]3C[C@H](C)C[C@H](N)C3)ccc(F)c2c1` [Example 65, N-(4-((1R,3S,5S)-3-amino-5-methylcyclohexyl)pyridin-3-yl)-5-fluoro-3-(3-methyl-1H-pyrazol-4-yl)quinoline-8-carboxamide], the 50% inhibitory concentration (IC50) on Pim-1 is not above 10 nM; on Pim-2 it was 100 to 1000 nM; at Pim-3, not above 10 nM.
Regarding `C[C@@H]1C[C@H](N)C[C@H](c2ccncc2NC(=O)c2ccc(F)c3cc(N4CCC(O)CC4)cnc23)C1` [Example 44, N-(4-((1R,3S,5S)-3-Amino-5-methylcyclohexyl)pyridin-3-yl)-5-fluoro-3-(4-hydroxypiperidin-1-yl)quinoline-8-carboxamide], the IC50 was not above 10 nM on Pim-1, 100 to 1000 nM at Pim-2 and not above 10 nM at Pim-3.
As for `Cc1nccnc1N(C)c1cnc2c(C(=O)Nc3cnccc3[C@@H]3C[C@H](C)C[C@H](N)C3)ccc(F)c2c1` [Example 149, N-(4-((1R,3S,5S)-3-Amino-5-methylcyclohexyl)pyridin-3-yl)-5-fluoro-3-(methyl(3-methylpyrazin-2-yl)amino)quinoline-8-carboxamide], the figures for the IC50 at Pim-1, at Pim-2 and at Pim-3 were not above 10 nM, not above 100 nM and not above 10 nM, respectively.
With `C[C@@H]1C[C@H](N)C[C@H](c2ccncc2NC(=O)c2ccc(F)c3cc(N4CCCN(C)C(=O)C4)cnc23)C1` [Example 135, N-(4-((1R,3S,5S)-3-Amino-5-methylcyclohexyl)pyridin-3-yl)-5-fluoro-3-(4-methyl-3-oxo-1,4-diazepan-1-yl)quinoline-8-carboxamide], the IC50 was not above 10 nM at Pim-1, 100 to 1000 nM at Pim-2 and not above 10 nM on Pim-3.
Turning to `Cc1ccncc1N(C)c1cnc2c(C(=O)Nc3cnccc3[C@@H]3C[C@H](C)C[C@H](N)C3)ccc(F)c2c1` [Example 146, N-(4-((1R,3S,5S)-3-Amino-5-methylcyclohexyl)pyridin-3-yl)-5-fluoro-3-(methyl(4-methylpyridin-3-yl)amino)quinoline-8-carboxamide], the IC50 at Pim-1 was not above 10 nM; at Pim-2, not above 100 nM; on Pim-3 it was not above 10 nM.
For the compound `C[C@@H]1C[C@H](N)C[C@H](c2ccncc2NC(=O)c2ccc(F)c3cc(N4CCOC[C@H]4C)nnc23)C1` [Example 94, N-{4-[(1R,3S,5S)-3-Amino-5-methylcyclohexyl]pyridin-3-yl}-5-fluoro-3-[(3R)-3-methylmorpholin-4-yl]cinnoline-8-carboxamide], the figures for the half-inhibitory concentration (IC50) on Pim-1, on Pim-2 and on Pim-3 were not above 10 nM, not above 100 nM and not above 10 nM, respectively.
With `C[C@@H]1C[C@H](N)C[C@H](c2ccncc2NC(=O)c2ccc(F)c3cc(N(C)c4ccccc4)cnc23)C1` [Example 83, N-(4-((1R,3S,5S)-3-Amino-5-methylcyclohexyl)pyridin-3-yl)-5-fluoro-3-(methyl(phenyl)amino)quinoline-8-carboxamide], the IC50 at Pim-1 was not above 10 nM; on Pim-2, not above 100 nM; at Pim-3, not above 10 nM.
Take `C[C@@H]1C[C@H](N)C[C@H](c2ccncc2NC(=O)c2ccc(F)c3cc(N(C)CC4CC4)cnc23)C1` [Example 19, N-{4-[(1R,3S,5S)-3-Amino-5-methylcyclohexyl]pyridin-3-yl}-3-[(cyclopropylmethyl)(methyl)amino]-5-fluoroquinoline-8-carboxamide]: the values for the concentration for half-maximal inhibition (IC50) on Pim-1, at Pim-2 and on Pim-3 were not above 10 nM, 100 to 1000 nM and not above 10 nM, respectively.
Consider `CC(C)N1CCN(c2cnc3c(C(=O)Nc4cnccc4[C@@H]4C[C@H](C)C[C@H](N)C4)ccc(F)c3c2)CC1=O` [Example 115, N-(4-((1R,3S,5S)-3-Amino-5-methylcyclohexyl)pyridin-3-yl)-5-fluoro-3-(4-isopropyl-3-oxopiperazin-1-yl)quinoline-8-carboxamide], for which the values for the IC50 on Pim-1, at Pim-2 and on Pim-3 were not above 10 nM, not above 100 nM and not above 10 nM, respectively.
As for `C[C@@H]1C[C@H](N)C[C@H](c2ccncc2NC(=O)c2ccc(F)c3cc(N4CCn5cnnc5C4)cnc23)C1` [Example 134, N-(4-((1R,3S,5S)-3-Amino-5-methylcyclohexyl)pyridin-3-yl)-3-(5,6-dihydro-[1,2,4]triazolo[4,3-a]pyrazin-7(8H)-yl)-5-fluoroquinoline-8-carboxamide], the 50% inhibitory concentration (IC50) at Pim-1 was not above 10 nM; on Pim-2, 100 to 1000 nM; on Pim-3, not above 10 nM.
Regarding `C[C@@H]1C[C@H](N)C[C@H](c2ccncc2NC(=O)c2ccc(F)c3cc(Nc4ccccc4F)cnc23)C1` [Example 125, N-(4-((1R,3S,5S)-3-Amino-5-methylcyclohexyl)pyridin-3-yl)-5-fluoro-3-(2-fluorophenylamino)quinoline-8-carboxamide], the IC50 at Pim-1 is not above 10 nM; at Pim-2, not above 100 nM; on Pim-3, not above 10 nM.
As to `C[C@@H]1C[C@H](N)C[C@H](c2ccncc2NC(=O)c2ccc(F)c3cc(N4C5CCC4CC5)cnc23)C1` [Example 136, N-(4-((1R,3S,5S)-3-Amino-5-methylcyclohexyl)pyridin-3-yl)-3-(7-azabicyclo[2.2.1]heptan-7-yl)-5-fluoroquinoline-8-carboxamide], the half-maximal inhibitory concentration (IC50) on Pim-1 is not above 10 nM; on Pim-2 it was not above 100 nM; on Pim-3 it was not above 10 nM.
Turning to `C[C@@H]1C[C@H](N)C[C@H](c2ccncc2NC(=O)c2ccc(F)c3cc(N4CCC[C@H]4C)cnc23)C1` [Example 34, N-(4-((1R,3S,5S)-3-Amino-5-methylcyclohexyl)pyridin-3-yl)-5-fluoro-3-((R)-2-methylpyrrolidin-1-yl)quinoline-8-carboxamide], the IC50 on Pim-1 is not above 10 nM; at Pim-2, not above 100 nM; on Pim-3 it was not above 10 nM.
Turning to `COc1ccc(N(C)c2cnc3c(C(=O)Nc4cnccc4[C@@H]4C[C@H](C)C[C@H](N)C4)ccc(F)c3c2)c(C)n1` [Example 144, N-(4-((1R,3S,5S)-3-Amino-5-methylcyclohexyl)pyridin-3-yl)-5-fluoro-3-((6-methoxy-2-methylpyridin-3-yl)(methyl)amino)quinoline-8-carboxamide], the 50% inhibitory concentration (IC50) is not above 10 nM on Pim-1, not above 100 nM at Pim-2 and not above 10 nM at Pim-3.
Consider `C[C@@H]1C[C@H](N)C[C@H](c2ccncc2NC(=O)c2ccc(F)c3cc(N4CCCC[C@@H]4C)cnc23)C1` [Example 170, N-(4-((1R,3S,5S)-3-Amino-5-methylcyclohexyl)pyridin-3-yl)-5-fluoro-3-((S)-2-methylpiperidin-1-yl)quinoline-8-carboxamide], for which the figures for the IC50 on Pim-1, on Pim-2 and at Pim-3 were not above 10 nM, 100 to 1000 nM and 10 to 50 nM, respectively.
Take `C[C@@H]1C[C@H](N)C[C@H](c2ccncc2NC(=O)c2ccc(F)c3cc(N4CC[C@@H](C#N)C4)cnc23)C1` [Example 8, N-{4-[(1R,3S,5S)-3-Amino-5-methylcyclohexyl]pyridin-3-yl}-3-[(3R)-3-cyanopyrrolidin-1-yl]-5-fluoroquinoline-8-carboxamide]: the IC50 at Pim-1 is not above 10 nM; at Pim-2 it was not above 100 nM; on Pim-3 it was not above 10 nM.
As to `CC1CN(c2cnc3c(C(=O)Nc4cnccc4[C@@H]4C[C@H](C)C[C@H](N)C4)ccc(F)c3c2)C1` [Example 111, N-(4-((1R,3S,5S)-3-Amino-5-methylcyclohexyl)pyridin-3-yl)-5-fluoro-3-(3-methylazetidin-1-yl)quinoline-8-carboxamide], the values for the IC50 on Pim-1, at Pim-2 and at Pim-3 were not above 10 nM, not above 100 nM and not above 10 nM, respectively.
For the compound `C[C@@H]1C[C@H](N)C[C@H](c2ccncc2NC(=O)c2ccc(F)c3cc(N(C)[C@@H]4CCOC4)cnc23)C1` [Example 154, N-(4-((1R,3S,5S)-3-Amino-5-methylcyclohexyl)pyridin-3-yl)-5-fluoro-3-(methyl((R)-tetrahydrofuran-3-yl)amino)quinoline-8-carboxamide], the IC50 on Pim-1 was not above 10 nM; at Pim-2, 100 to 1000 nM; on Pim-3, not above 10 nM.
